Data published in patent US7495104B2, “Quinoline or quinazoline derivatives inhibiting auto-phosphorylation of fibroblast growth factor receptors” (Kirin Beer Kabushiki Kaisha, priority 2001, dated 2009).

Target: Bek (Homo sapiens, UniProt P21802)
Assay: Inhibitory activity against Bek-autophosphorylation using ELISA method in OCUM-2MD3 cells
Format: cell-based
Conditions: 1 hr with compound, read-out: IC50 (concentration necessary for inhibiting 50% of Bek-phosphorylation)
Outline: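 Sandwich ELISA (anti-phosphotyrosine capture, anti-Bek detection, peroxidase, 450 nm) measured Bek autophosphorylation in OCUM-2MD3 lysates after 1 hr compound treatment at 37° C in 0.1% serum medium. IC50 derived by scaling between no-drug (100%) and excess positive control at 1000 nM (0%).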

Chain of Bek (P21802 431-767 limits assumed): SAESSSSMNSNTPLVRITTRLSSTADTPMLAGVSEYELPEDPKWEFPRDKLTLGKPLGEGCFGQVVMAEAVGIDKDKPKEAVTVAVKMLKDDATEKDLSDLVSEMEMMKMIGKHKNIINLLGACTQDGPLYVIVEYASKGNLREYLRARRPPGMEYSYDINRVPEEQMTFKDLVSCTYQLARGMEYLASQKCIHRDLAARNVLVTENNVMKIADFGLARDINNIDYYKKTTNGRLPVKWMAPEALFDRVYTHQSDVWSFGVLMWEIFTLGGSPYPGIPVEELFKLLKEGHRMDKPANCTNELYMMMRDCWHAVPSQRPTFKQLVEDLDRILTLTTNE

| Compound | IC50 [nM] |
| --- | --- |
| COc1cc2c(Oc3ccc(NC(=O)NCCC(C)(C)C)c(Cl)c3)ccnc2cc1OCCN1CCC(O)CC1 [Compound 274, 1-(2-Chloro-4-{7-[2-(4-hydroxy-piperidin-1-yl)-ethoxy]-6-methoxy-quinolin-4-yloxy}-phenyl)-3-(3,3-dimethyl-butyl)-urea] | 27.8 |
| COc1cc2c(Oc3ccc(NC(=O)NCCC(C)(C)C)c(Cl)c3)ccnc2cc1OCCN1CCC(CO)CC1 [Compound 275, 1-(2-Chloro-4-{7-[2-(4-hydroxymethyl-piperidin-1-yl)-ethoxy]-6-methoxy-quinolin-4-yloxy}-phenyl)-3-(3,3-dimethyl-butyl)-urea] | 31.6 |
| COc1cc2c(Oc3ccc(Nc4ccc(C(C)(C)C)cc4)c(Cl)c3)ccnc2cc1OCCCN1CCC(O)CC1 [Compound 276, 1-(3-{4-[4-(4-Tert-butyl-phenylamino)-3-chloro-phenoxy]-6-methoxy-quinolin-7-yloxy}-propyl)-piperidin-4-ol] | 1130 |
| COc1cc2c(Oc3ccc(Nc4ccc(C(C)(C)C)cc4)c(Cl)c3)ccnc2cc1OCCCN1CCC(CO)CC1 [Compound 277, [1-(3-{4-[4-(4-Tert-butyl-phenylamino)-3-chloro-phenoxy]-6-methoxy-quinolin-7-yloxy}-propyl)-piperidin-4-yl]-methanol] | 617 |
| COc1cc2c(Oc3ccc(Nc4ccc(C(C)(C)C)cc4)c(Cl)c3)ccnc2cc1OCCN1CCC(O)CC1 [Compound 278, 1-(2-{4-[4-(4-Tert-butyl-phenylamino)-3-chloro-phenoxy]-6-methoxy-quinolin-7-yloxy}-ethyl)-piperidin-4-ol] | 1120 |
| COc1cc2c(Oc3ccc(Nc4ccc(C(C)(C)C)cc4)c(Cl)c3)ccnc2cc1OCCN1CCC(CO)CC1 [Compound 279, [1-(2-{4-[4-(4-Tert-butyl-phenylamino)-3-chloro-phenoxy]-6-methoxy-quinolin-7-yloxy}-ethyl)-piperidin-4-yl]-methanol] | 370 |
| COc1cc2c(Oc3ccc(Nc4ccc(C(C)(C)C)cc4)cc3)ccnc2cc1OCCN1CCC(OC)CC1 [Compound 280, (4-Tert-butyl-phenyl)-(4-{6-methoxy-7-[2-(4-methoxy-piperidin-1-yl)-ethoxy]-quinolin-4-yloxy}-phenyl)-amine] | 278 |
| COCC1CCN(CCOc2cc3nccc(Oc4ccc(Nc5ccc(C(C)(C)C)cc5)cc4)c3cc2OC)CC1 [Compound 281, (4-Tert-butyl-phenyl)-(4-{6-methoxy-7-[2-(4-methoxymethyl-piperidin-1-yl)-ethoxy]-quinolin-4-yloxy}-phenyl)-amine] | 244 |
| COCC1CCN(CCCOc2cc3nccc(Oc4ccc(NC(=O)NCCC(C)(C)C)cc4)c3cc2OC)CC1 [Compound 282, 1-(3,3-Dimethyl-butyl)-3-(4-{6-methoxy-7-[3-(4-methoxymethyl-piperidin-1-yl)-propoxy]-quinolin-4-yloxy}-phenyl)-urea] | 31.6 |
| COc1cc2c(Oc3ccc(Nc4ccc(C(C)(C)C)cc4)cc3F)ccnc2cc1OCCN1CCC(CO)CC1 [Compound 283, [1-(2-{4-[4-(4-Tert-butyl-phenylamino)-2-fluoro-phenoxy]-6-methoxy-quinolin-7-yloxy}-ethyl)-piperidin-4-yl]-methanol] | 167 |
| COc1cc2c(Oc3ccc(Nc4ccc(C(C)(C)C)cc4)cc3F)ccnc2cc1OCCN1CCC(O)CC1 [Compound 284, 1-(2-{4-[4-(4-Tert-butyl-phenylamino)-2-fluoro-phenoxy]-6-methoxy-quinolin-7-yloxy}-ethyl)-piperidin-4-ol] | 247 |
| COc1cc2c(Oc3ccc(NC(=O)NCCC(C)(C)C)cc3F)ccnc2cc1OCCCN1CCC(CO)CC1 [Compound 285, 1-(3,3-Dimethyl-butyl)-3-(3-fluoro-4-{7-[3-(4-hydroxymethyl-piperidin-1-yl)-propoxy]-6-methoxy-quinolin-4-yloxy}-phenyl)-urea] | 22.8 |
| COc1cc2c(Oc3ccc(NC(=O)NCCC(C)(C)C)cc3F)ccnc2cc1OCCCN1CCC(O)CC1 [Compound 286, 1-(3,3-Dimethyl-butyl)-3-(3-fluoro-4-{7-[3-(4-hydroxy-piperidin-1-yl)-propoxy]-6-methoxy-quinolin-4-yloxy}-phenyl)-urea] | 17.2 |
| COc1cc2c(Oc3ccc(Nc4ccc(C(C)(C)C)cc4)c(F)c3)ccnc2cc1OCCN1CCC(O)CC1 [Compound 287, 1-(2-{4-[4-(4-Tert-butyl-phenylamino)-3-fluoro-phenoxy]-6-methoxy-quinolin-7-yloxy}-ethyl)-piperidin-4-ol] | 254 |
| COc1cc2c(Oc3ccc(Nc4ccc(C(C)(C)C)cc4)c(F)c3)ccnc2cc1OCCN1CCC(CO)CC1 [Compound 288, [1-(2-{4-[4-(4-Tert-butyl-phenylamino)-3-fluoro-phenoxy]-6-methoxy-quinolin-7-yloxy}-ethyl)-piperidin-4-yl]-methanol] | 110 |
| COc1cc2c(Oc3ccc(Nc4ccc(C(C)(C)C)cc4)c(F)c3)ccnc2cc1OCCCN1CCC(O)CC1 [Compound 289, 1-(3-{4-[4-(4-Tert-butyl-phenylamino)-3-fluoro-phenoxy]-6-methoxy-quinolin-7-yloxy}-propyl)-piperidin-4-ol] | 248 |
| COc1cc2c(Oc3ccc(Nc4ccc(C(C)(C)C)cc4)c(F)c3)ccnc2cc1OCCCN1CCC(CO)CC1 [Compound 290, [1-(3-{4-[4-(4-Tert-butyl-phenylamino)-3-fluoro-phenoxy]-6-methoxy-quinolin-7-yloxy}-propyl)-piperidin-4-yl]-methanol] | 233 |
| COc1cc2c(Oc3ccc(NC(=O)NCCC(C)(C)C)c(Cl)c3)ccnc2cc1OCCN1CCC(CCO)CC1 [Compound 292, 1-[2-Chloro-4-(7-{2-[4-(2-hydroxy-ethyl)-piperidin-1-yl]-ethoxy}-6-methoxy-quinolin-4-yloxy)-phenyl]-3-(3,3-dimethyl-butyl)-urea] | 49.6 |
| COc1cc2c(Oc3ccc(Nc4ccc(C(C)(C)C)cc4)c(Cl)c3)ccnc2cc1OCCN1CCC(CCO)CC1 [Compound 293, 2-[1-(2-{4-[4-(4-Tert-butyl-phenylamino)-3-chloro-phenoxy]-6-methoxy-quinolin-7-yloxy}-ethyl)-piperidin-4-yl]-ethanol] | 2360 |
| COc1cc2c(Oc3ccc(Nc4ccc(C(C)(C)C)cc4)c(Cl)c3)ccnc2cc1OCCCN1CCC(CCO)CC1 [Compound 294, 2-[1-(3-{4-[4-(4-Tert-butyl-phenylamino)-3-chloro-phenoxy]-6-methoxy-quinolin-7-yloxy}-propyl)-piperidin-4-yl]-ethanol] | 1100 |
| COc1cc2c(Oc3ccc(NC(=O)NCCC(C)(C)C)cc3F)ccnc2cc1OCCN1CCC(CO)CC1 [Compound 295, 1-(3,3-Dimethyl-butyl)-3-(3-fluoro-4-{7-[2-(4-hydroxymethyl-piperidin-1-yl)-ethoxy]-6-methoxy-quinolin-4-yloxy}-phenyl)-urea] | 14.4 |
| COc1cc2c(Oc3ccc(NC(=O)NCCC(C)(C)C)cc3F)ccnc2cc1OCCN1CCC(O)CC1 [Compound 296, 1-(3,3-Dimethyl-butyl)-3-(3-fluoro-4-{7-[2-(4-hydroxy-piperidin-1-yl)-ethoxy]-6-methoxy-quinolin-4-yloxy}-phenyl)-urea] | 19.8 |
| COc1cc2c(Oc3ccc(NC(=O)NCCC(C)(C)C)cc3F)ccnc2cc1OCCN1CCC(CCO)CC1 [Compound 297, 1-(3,3-Dimethyl-butyl)-3-[3-fluoro-4-(7-{2-[4-(2-hydroxy-ethyl)-piperidin-1-yl]-ethoxy}-6-methoxy-quinolin-4-yloxy)-phenyl]-urea] | 42.4 |
| COc1cc2c(Oc3ccc(NC(=O)NCCC(C)(C)C)cc3F)ccnc2cc1OCCCN1CCC(CCO)CC1 [Compound 298, 1-(3,3-Dimethyl-butyl)-3-[3-fluoro-4-(7-{3-[4-(2-hydroxy-ethyl)-1-piperidin-1-yl]-propoxy}-6-methoxy-quinolin-4-yloxy)-phenyl]-urea] | 41.7 |
| COc1cc2c(Oc3ccc(NC(=O)NCCC(C)(C)C)c(F)c3)ccnc2cc1OCCN1CCC(O)CC1 [Compound 299, 1-(3,3-Dimethyl-butyl)-3-(2-fluoro-4-{7-[2-(4-hydroxy-piperidin-1-yl)-ethoxy]-6-methoxy-quinolin-4-yloxy}-phenyl)-urea] | 27.4 |
| COc1cc2c(Oc3ccc(NC(=O)NCCC(C)(C)C)c(F)c3)ccnc2cc1OCCN1CCC(CO)CC1 [Compound 300, 1-(3,3-Dimethyl-butyl)-3-(2-fluoro-4-{7-[2-(4-hydroxymethyl-piperidin-1-yl)-ethoxy]-6-methoxy-quinolin-4-yloxy}-phenyl)-urea] | 22.7 |
| COc1cc2c(Oc3ccc(NC(=O)NCCC(C)(C)C)c(F)c3)ccnc2cc1OCCN1CCC(CCO)CC1 [Compound 301, 1-(3,3-Dimethyl-butyl)-3-[2-fluoro-4-(7-{2-[4-(2-hydroxy-ethyl)-piperidin-1-yl]-ethoxy}-6-methoxy-quinolin-4-yloxy)-phenyl]-urea] | 38.4 |
| COc1cc2c(Oc3ccc(NC(=O)NCCC(C)(C)C)c(F)c3)ccnc2cc1OCCCN1CCC(O)CC1 [Compound 302, 1-(3,3-Dimethyl-butyl)-3-(2-fluoro-4-{7-[3-(4-hydroxy-piperidin-1-yl)-propoxy]-6-methoxy-quinolin-4-yloxy}-phenyl)-urea] | 26.6 |
| COc1cc2c(Oc3ccc(NC(=O)NCCC(C)(C)C)c(F)c3)ccnc2cc1OCCCN1CCC(CO)CC1 [Compound 303, 1-(3,3-Dimethyl-butyl)-3-(2-fluoro-4-{7-[3-(4-hydroxymethyl-piperidin-1-yl)-propoxy]-6-methoxy-quinolin-4-yloxy}-phenyl)-urea] | 22 |
| COc1cc2c(Oc3ccc(NC(=O)NCCC(C)(C)C)c(F)c3)ccnc2cc1OCCCN1CCC(CCO)CC1 [Compound 304, 1-(3,3-Dimethyl-butyl)-3-[2-fluoro-4-(7-{3-[4-(2-hydroxy-ethyl)-piperidin-1-yl]-propoxy}-6-methoxy-quinolin-4-yloxy)-phenyl]-urea] | 31.2 |
